Laboratory results from the METLIN SMRT retention time set (Domingo-Almenara et al. 2019).

Assay: gradient 5% acetonitrile 3 min, to 50% in 2 min, to 85% in 15 min, held 3 min, 100 µL/min
Conditions: column: Zorbax Extend-C18 2.1 x 50 mm; eluents: water / acetonitrile, 0.1% formic acid
How it was run: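 Data were gathered over 3 months by HPLC coupled to a quadrupole time-of-flight mass spectrometer, operated in positive and negative ionization mode. Mixtures of ~100 pure standards ran on a Zorbax Extend-C18 column (2.1 × 50 mm, 1.8 μm) at 100 μL/min, with water and acetonitrile each containing 0.1% formic acid and dead and dwell volumes of 40 μL and 900 μL. Retention time was read from adduct peaks picked by computer and checked manually.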

RP-LC retention time | SMILES
832 s | COc1ccc(NC(=O)Cn2c(=O)n(-c3ccc(F)cc3)c(=O)c3c2cc(C)n3C)c(OC)c1
711 s | O=C(NCc1ccco1)C1CCN(C(=O)c2ncn3c2COC(c2ccc(F)cc2)C3)CC1 (stereo unspecified)
802 s | CCN1c2ccc(C)cc2C(=O)NC12CCN(C(=O)Cc1cccc(OC)c1)CC2
990 s | Cc1c(-c2noc(-c3ccc4c(c3)OCO4)n2)nnn1Cc1cccc(F)c1
705 s | CC(=O)NCCc1csc(C2CCCN(C(=O)C3(c4ccccc4)CC3)C2)n1 (stereo unspecified)
863 s | CCS(=O)(=O)Nc1ccc(C2(C(=O)NCc3ccc(C)cc3)CCC2)cc1
1230 s | Cc1ccc(C(C)NC(=O)C2CCCN(c3nc4c(s3)c(C)nn4-c3ccc(F)cc3)C2)cc1 (stereo unspecified)
731 s | CCOC(=O)N1CCC(NC(=O)Cn2ccc3ccccc32)CC1
716 s | O=C(Nc1cccs1)Nc1ccccc1NC(=O)c1ccco1
949 s | O=C(NCCC1=CCCCC1)C(=O)NCC(O)c1ccc(C(F)(F)F)cc1 (stereo unspecified)
1130 s | COc1ccccc1NC(=O)C(C)n1nc(C)c2nn(-c3ccccc3)c(-n3cccc3)c2c1=O (stereo unspecified)
632 s | CCN(CC)CCCNC(=O)c1noc2c1CCCCC2
990 s | O=C(CC1CCCC1)Nc1cnc(-c2ccccc2)nc1
896 s | CCc1noc(C2(NC(=O)c3ccc(C#N)cc3)CCCCC2)n1
695 s | CCOC(=O)COc1cc(-c2ccccc2)nc2ccc(NC(=O)COC)cc12
801 s | CCN(C(=O)c1cc2c(=O)n(C)c(=O)n(C)c2s1)c1ccc(OC)cc1
1090 s | COc1ccc(Cc2nc3nccc(-c4cc5ccccc5o4)n3n2)cc1
978 s | COc1cccc(C(=O)Nc2nc(-c3ccc4c(c3)N(C)C(=O)CO4)c(C)s2)c1
758 s | OCC(O)COc1cccc2ccccc12 (stereo unspecified)
632 s | O=C(CS(=O)Cc1ccco1)NC/C=C\COc1cc(CN2CCCCC2)ccn1 (stereo unspecified)
936 s | CC(=O)Nc1cccc(-c2nc(-c3ccc4c(c3)oc(=O)n4C(C)C)no2)c1
741 s | CN(C)c1nc2ncn3c(=O)n(CC(=O)Nc4cc(F)cc(F)c4)nc3c2s1
605 s | Cc1c(C)n(CC(O)CNC(C)c2ccccc2)c2ccccc12 (stereo unspecified)

RP-LC retention time | SMILES
560 s | Cc1cc(C(=O)N2CCc3nn(C)c(=O)n3CC2)n[nH]1
598 s | O=C(Nc1ccccc1)N1CCc2[nH]cnc2C1c1ccccn1 (stereo unspecified)
1150 s | COc1cccc(-c2nc(C3CCN(S(=O)(=O)c4ccc(C)cc4)CC3)no2)c1
999 s | COC(=O)c1cc(S(=O)(=O)N2CCCC2C(=O)Nc2ccc(Br)cc2F)cn1C (stereo unspecified)
690 s | Cc1ccc(C)c(C(=O)N2CCC(c3cc4n(n3)CCCN(C)C4=O)CC2)c1
837 s | CS(=O)(=O)c1ccccc1NC(=O)C1CCCCN1S(=O)(=O)c1cccs1 (stereo unspecified)
928 s | CCc1ccccc1NC(=O)Cc1csc2nc(-c3ccc(C)c(C)c3)cn12
774 s | O=C(c1ccoc1)N1CCN(c2cc(-c3ccc(Cl)cc3)[nH]n2)CC1
1140 s | CC(C)(C)c1cc(C(=O)NCc2ccccc2)nc2ccnn12
791 s | O=C(Cn1cnc2nc3c(cc2c1=O)CCCC3)Nc1ccc(Br)cc1F
710 s | Cc1oc(-c2[nH]ncc2C(=O)N(C)C)cc1S(=O)(=O)N1CCC(C)CC1
632 s | CCOc1ccc(S(=O)(=O)N2CCC(C(=O)NC3CCCC3)CC2)cc1
1050 s | Cc1ccc(NC(=O)C2CCN(S(=O)(=O)c3cc(-c4noc(C5CC5)n4)cs3)CC2)cc1
719 s | O=C(NCCc1ccsc1)C(=O)Nc1cccc(N2CCCCC2=O)c1
847 s | Cc1cc(Cl)ccc1NC(=O)C1CCN(c2c(C(=O)N3CCOCC3)cnc3snc(C)c23)CC1
1020 s | COc1ccc(-c2noc(C3CCCN3C(=O)c3cc(Cl)ccc3OC)n2)cc1 (stereo unspecified)
889 s | Cn1nc(-c2nc(Cc3ccccc3)no2)c2c1CCN(C(=O)NC(C)(C)C)C2
869 s | Cc1nc(Nc2ccccc2)sc1C(=O)NC1CCCC1
959 s | CCc1ccc(CNC(=O)c2nnc(-c3ccc(S(=O)(=O)N(C)C)cc3)o2)cc1
681 s | Cc1ccc2nc(-c3ccc(C)c(NC(=O)c4cccs4)c3)[nH]c2c1
790 s | COCCNC(=O)Cc1ccc(NC(=O)c2ccc(C(C)(C)C)cc2)cc1
852 s | Cc1nc(Cn2cccc2C(=O)NCc2cccc(Br)c2)no1
682 s | CCS(=O)(=O)N1CCCc2cc(C(=O)NCCOC)ccc21

RP-LC retention time | SMILES
626 s | Cc1cc(NC(=O)CN2CCc3[nH]c4c(C)c(C)ccc4c(=O)c3C2)ccc1F
642 s | Cc1noc([C@@H]2CN(C(=O)c3occc3C)C[C@H]2CO)n1
970 s | CCOc1ccccc1NC(=O)Cn1nnc(C(=O)Nc2cc(Cl)ccc2OC)c1N
570 s | Nc1cccc(-c2ccc(N3CCCCC3)nn2)c1
622 s | Cc1nnc(NC(=O)CSc2ccc(-c3sc(-c4cccnc4)nc3C)nn2)s1
1100 s | Cc1oc(-c2ccccc2)nc1Cn1ccn2nc(-c3ccc(F)cc3)cc2c1=O
936 s | COc1ccc(-c2nc3cnccn3c2Nc2ccc(C(C)C)cc2)cc1OC
814 s | Fc1cccc(-c2noc(-c3ccc(N4CCN(C5CCCCC5)CC4)nc3)n2)c1
564 s | NCCNc1ccc(NCCN)c2c1C(=O)c1ccncc1C2=O
591 s | CNC(=O)c1cc[nH]c1C1CCCN(C(=O)c2cscn2)C1 (stereo unspecified)
760 s | CC(C)N1CCN(Cc2ccc(C(=O)NCCC3=CCCCC3)cc2)C(=O)C1=O
946 s | Cn1nc(C(C)(C)C)cc1C(=O)N[C@@H](Cc1cccc(Cl)c1)C(=O)NCC#N
708 s | Nc1ccccc1-c1nc2ccncc2[nH]1
854 s | COc1ccc(-c2nc(CSc3nc4ccccc4n4c(C)nnc34)c(C)o2)cc1
662 s | CCCN1CCN(C(=O)CSc2nccnc2Sc2ccccc2)CC1
835 s | CCCNS(=O)(=O)c1ccc(-c2c(C)noc2C)cc1
613 s | CN1C(=O)c2cccn2CC1C(=O)NCc1ccco1 (stereo unspecified)
724 s | COc1ccc(N2CC(C(=O)NCC(=O)N3CCCc4ccccc43)CC2=O)cc1 (stereo unspecified)
1080 s | Cc1nc2nc(-c3ccc(C(C)(C)C)cc3)nn2c(C)c1CC(=O)N1CCCCC1C (stereo unspecified)
675 s | COC(=O)c1ccc(C2CC(=O)NC3=C2C(=O)CC(C)(C)C3)cc1 (stereo unspecified)
748 s | CCn1cnc(S(=O)(=O)N2CCC(C(=O)Nc3nc4ccc(OC)cc4s3)CC2)c1
548 s | O=C(NCc1cccs1)C(=O)Nc1ccncc1
664 s | CCN(CC)C(=O)COc1ccc(NC(=O)C2CC2)cn1

RP-LC retention time | SMILES
575 s | COCCOc1cc(=O)n2c(c1C(=O)NC1CCC1)CCOCC2
600 s | CCCC(=O)N1CCCC1COc1ccc(C(=O)N2CCCC2)cc1 (stereo unspecified)
709 s | CCOc1ccc(S(=O)(=O)N2CCCC(C(=O)NCCOC)C2)cc1 (stereo unspecified)
955 s | Cc1ccc(Cn2c(N3CCCC(C(=O)NCC(C)C)C3)nc3ccsc3c2=O)cc1 (stereo unspecified)
1040 s | CC(C)CCNC(=O)C1(C)CN(S(=O)(=O)c2ccccc2)CC(=O)N1Cc1ccc(Cl)cc1 (stereo unspecified)
874 s | Cc1nc(N2CCC(C(=O)Nc3ccc(F)cc3F)CC2)c2c(C)c(C)oc2n1
692 s | Cc1ccc(CNC(=O)Cn2c(=O)c3nnc(C)n3c3ncccc32)cc1
1280 s | Cc1sc(NC(=O)Cc2csc(-c3ccccc3)n2)nc1-c1ccc(Cl)cc1
767 s | CC(C)NC(=O)C1CCN(S(=O)(=O)c2cc(C(=O)N3CCCCCC3)cs2)CC1
906 s | CN1CCCc2cc(C(=O)NCc3ccc(F)cc3)sc21
936 s | O=C(Nc1cnc(-c2ccccc2)nc1)C1CCCC1
754 s | CC(C)c1noc(-c2cccnc2N2CCCN(Cc3ccc(F)cc3Cl)CC2)n1
873 s | COc1ccc(N2CCN(c3cc(SCC(=O)NCCC(C)C)ncn3)CC2)cc1
987 s | COc1ccc(C2CC(=O)N(c3ccc(C(C)C)cc3)C(=O)C2)cc1OC
586 s | CCn1ccc(C(=O)N2CC(c3nc(C4CC4)no3)C3(CCN(C)CC3)C2)n1 (stereo unspecified)
1050 s | Cn1nc(C(=O)N2CCC(Oc3ccc(-c4noc(C5CC5)n4)cc3)C2)c2ccccc21 (stereo unspecified)
1240 s | Cc1cccc(C)c1NC(=O)Cn1nc(N2CCC(C)CC2)c2ccccc2c1=O
672 s | Cc1cc(N2CCN(C(=O)Nc3cccc(Cl)c3)CC2)nc(N2CCOCC2)n1
566 s | CCn1cc(CCN2CCC(C(=O)N(C)C)CC2)c2cccnc21
1260 s | O=C(NCc1nnc2n1CCCC2)c1ccc2c(c1)OCO2
910 s | Cc1sc(NC(=O)CC(C)C)nc1-c1ccc2c(c1)N(C)C(=O)CO2

SMILES | RP-LC retention time
CCc1nc2cc(N3CCCC(C(=O)N4CCC5(CC4)OCCO5)C3)cnc2nc1CC (stereo unspecified) | 769 s
